Test results from patent publication US9278994B2, “Short antimicrobial lipopeptides” (Helix BioMedix Inc., priority 2012, dated 2016).
Values after ≈ are worked out from the molar mass of the structure shown. Where a SMILES comes first, the peptide text is derived from it. [ ]: non-standard residue; d: D form. The star is where a group is joined. Palmitoyl = CCCCCCCCCCCCCCCC(=O)*

Experiments:
P. acnes = assay type: cell-based, Propionibacterium acnes
Procedure: (§1) 2. Bacterial strains and culture conditions. E. coli UB1005, S. aureus SAP0017 (MRSA) and C. albicans 105 were grown in Mueller Hinton (MH) (Difco, BD Biosciences, MD) agar plates and broth (2 g of beef extract, 17.5 g of acid hydrolysis of casein and 1.5 g of starch per liter) at 37° C. unless otherwise indicated. Bacteria from frozen stock were subcultured onto freshly made MH agar plates prior to susceptibility testing. For P. acnes, the bacterium was grown in BBL™ Brain-Heart infusion (Becton, Dickinson & Company, Sparks Md.) broth or agar plates at 37° C. in anaerobic condition generated using a anaerobic jar and AnaeroGen™ (Oxoid, Basingstoke, Hampshire, England).
(§2) 3. […] The minimal inhibitory concentration (MIC) of each peptide was determined using modified CLSI microtiter broth dilution assay (Methods for Dilution Antimicrobial Susceptibility Tests for Bacteria That Grow Aerobically; Approved Standard—Ninth Edition). An inoculum of 10^5-10^6 colony forming units (CFU)/ml was used or 10^4 CFU/ml for yeast. The MIC value was taken as the lowest peptide concentration at which more than 90% of microbial growth was inhibited after 15 to 20 h of incubation at 37° C. For P. acnes, the incubation was kept under anaerobic condition at 37° C. for 2 weeks before MIC was determined Kill kinetics was performed using a given concentration (about 2-5-fold MIC) of peptide mixed with indicator microorganism. After appropriate dilution the cells were plated on agar plates after defined time intervals and incubated at 37° C. overnight. In the case of P. acnes an extended incubation period was required. The CFU was counted and plotted as survival of bacteria after peptide treatment over time, which indicates the effectiveness of a peptide to kill a microbe.

S. aureus SAP0017 (MRSA) = tested on: S. aureus SAP0017 (MRSA)
Procedure: (§3) We conducted the minimal inhibitory concentration (MIC) determination using CLSI (Clinical and Laboratory standard Institute) recommended standard protocol for antimicrobials (Methods for Dilution Antimicrobial Susceptibility Tests for Bacteria That Grow Aerobically; Approved Standard—Ninth Edition).
as §1, §2

E. coli UB1005 = tested on: E. coli UB1005
Procedure: as §3, §1, §2

C. albicans 105 = tested on: C. albicans 105
Procedure: as §3, §1, §2

[1] = tested on: P. acnes, S. aureus, E. coli and C. albicans; experiment: MIC / antimicrobial activity; assay type: cell-based; conditions: summary of MIC results of Table 1
Procedure: as §1, §2

human dermal fibroblasts = experiment: Gene profiling (PCR array of extracellular matrix adhesion molecule genes); assay type: cell-based; conditions: 5 μg/ml, 24 h; up (+) or down (−) regulation
Procedure: 5. Gene profiling analysis. The 84 genes encoding extracellular matrix adhesion molecules in human dermal fibroblasts were analyzed using PCR arrays conducted by Sunny Biodiscovery, Inc (Santa Paula, Calif.). Human dermal fibroblasts were from Zen-Bio, Research Triangle Park, N.C. (cat. #DF-F, lot #DFMF112410). […] At the end of the incubation cells were observed under the inverted Nikon TS microscope.
At the end of the incubation period cells were preserved in RNAlater solution (Ambion, Austin, Tex.) for 6 h. RNA was extracted and purified with NucleoSpin RNA II kit from Machery-Nagel, Bethleem, Pa.). Purified total RNA was assessed at 230 nm, 260 nm and 280 nm with Agilent HP-8452A diode array spectrophotometer. The concentration of RNA was equalized across the samples and the expression of genes of interest was measured by real-time quantitative PCR with BioRad iCycler iQ Detection System using PCR arrays PAHS-013A (www.sabiosciences.com/rt_pcr_product/HTML/PAHS-013A.html), with 1st strand synthesis kit, SYBR Green master mix and PCR running conditions from Qiagen (formerly SA Biosciences). Efficiency ΔΔCt method was used for quantification of results, after the normalization of gene expression to 5 housekeeping genes carried with the RT2 Profiler PCR Array Data Analysis version 3.5 software.

| Structure (SMILES) | MIC P. acnes (P. acnes) | MIC S. aureus (S. aureus SAP0017 (MRSA)) | MIC E. coli (E. coli UB1005) | MIC C. albicans (C. albicans 105) | antimicrobial activity (in words) [1] | other results |
| --- | --- | --- | --- | --- | --- | --- |
| CCCCCCCCCCCCCCCC(=O)N[C@@H](CCCCN)C(=O)N1CCC[C@@H]1C(=O)N[C@H](C(=O)O)[C@@H](C)O [HB2182, Pal-KdPT-OH] (Palmitoyl-Lys-[dP]-Thr-OH) | 32 µg/mL (≈ 0.0549 mM) | >2000 µg/mL | >2000 µg/mL | >2000 µg/mL | less active or inactive | – |
| CCCCCCCCCCCCCCCC(=O)N[C@@H](CCCCN)C(=O)N1CCC[C@H]1C(=O)N[C@H](C(=O)O)C(C)C [HB2184, Pal-KPV-OH] (Palmitoyl-Lys-Pro-Val-OH) | 8 µg/mL (≈ 0.0138 mM) | >2000 µg/mL | >2000 µg/mL | >2000 µg/mL | less active or inactive | – |
| CCCCCCCCCCCCCCCC(=O)N[C@@H](CCCCN)C(=O)N[C@H](C(N)=O)C(C)C [HB2239, Pal-KV-NH2] (Palmitoyl-Lys-Val-NH2) | >2000 µg/mL | >2000 µg/mL | >2000 µg/mL | >2000 µg/mL | – | – |
| CCCCCCCCCCCCCCCC(=O)N[C@@H](CCCCN)C(=O)N[C@@H](C)C(N)=O [HB2240, Pal-KA-NH2] (Palmitoyl-Lys-Ala-NH2) | >2000 µg/mL | >2000 µg/mL | >2000 µg/mL | >2000 µg/mL | – | – |
| CCCCCCCCCCCCCCCC(=O)N[C@@H](CCCCN)C(=O)N[C@@H](Cc1ccccc1)C(N)=O [HB2241, Pal-KF-NH2] | >2000 µg/mL | >2000 µg/mL | >2000 µg/mL | >2000 µg/mL | – | – |
| CCCCCCCCCCCCCCCC(=O)N[C@@H](CCCCN)C(=O)N[C@@H](Cc1c[nH]cn1)C(N)=O [HB2242, Pal-KH-NH2] | 1 to 2 µg/mL | 4 µg/mL (≈ 0.00768 mM) | 16 µg/mL (≈ 0.0307 mM) | 16 µg/mL (≈ 0.0307 mM) | broad spectrum antimicrobial activity | Fold change (peptide vs. PBS control) ADAMTS (human dermal fibroblasts): 4.7899 Fold change; Fold change (peptide vs. PBS control) CDH1 (human dermal fibroblasts): 1.9725 Fold change; Fold change (peptide vs. PBS control) COL1A1 (human dermal fibroblasts): 1.1975 Fold change; Fold change (peptide vs. PBS control) COL8A1 (human dermal fibroblasts): −1.4044 Fold change; Fold change (peptide vs. PBS control) HAS1 (human dermal fibroblasts): −2.3295 Fold change; Fold change (peptide vs. PBS control) ITGA6 (human dermal fibroblasts): −1.014 Fold change; Fold change (peptide vs. PBS control) ITGA7 (human dermal fibroblasts): −2.0279 Fold change; Fold change (peptide vs. PBS control) ITGB2 (human dermal fibroblasts): 1.3947 Fold change; Fold change (peptide vs. PBS control) KAL1 (human dermal fibroblasts): 1.8404 Fold change; Fold change (peptide vs. PBS control) MMP1 (human dermal fibroblasts): 1.7171 Fold change; Fold change (peptide vs. PBS control) MMP8 (human dermal fibroblasts): −1.6472 Fold change; Fold change (peptide vs. PBS control) MMP9 (human dermal fibroblasts): −1.6472 Fold change; Fold change (peptide vs. PBS control) MMP10 (human dermal fibroblasts): 1.2142 Fold change; Fold change (peptide vs. PBS control) MMP13 (human dermal fibroblasts): −2.4967 Fold change; Fold change (peptide vs. PBS control) MMP14 (human dermal fibroblasts): 1.2142 Fold change; Fold change (peptide vs. PBS control) SELE (human dermal fibroblasts): 1.3947 Fold change; Fold change (peptide vs. PBS control) THBS3 (human dermal fibroblasts): −3.0738 Fold change |
| CCCCCCCCCCCCCCCC(=O)N[C@@H](CCCCN)C(=O)NCC(N)=O [HB2243, Pal-KG-NH2] (Palmitoyl-Lys-Gly-NH2) | 32 to 64 µg/mL | 250 µg/mL (≈ 0.567 mM) | >2000 µg/mL | >2000 µg/mL | more Gram-positive selective activity | – |
| CCCCCCCCCCCCCCCC(=O)N[C@@H](CCCCN)C(=O)N[C@@H](CC(C)C)C(N)=O [HB2244, Pal-KL-NH2] (Palmitoyl-Lys-Leu-NH2) | 8 µg/mL (≈ 0.0161 mM) | 250 µg/mL (≈ 0.503 mM) | >2000 µg/mL | >2000 µg/mL | more Gram-positive selective activity | – |
| CCCCCCCCCCCCCCCC(=O)N[C@@H](CCCCN)C(=O)N[C@@H](CO)C(N)=O [HB2245, Pal-KS-NH2] | 128 µg/mL (≈ 0.272 mM) | 1000 µg/mL (≈ 2.12 mM) | >2000 µg/mL | >2000 µg/mL | – | – |
| CCCCCCCCCCCCCCCC(=O)N[C@@H](CCCCN)C(=O)N[C@H](C(N)=O)[C@@H](C)CC [HB2246, Pal-KI-NH2] | >2000 µg/mL | 128 µg/mL (≈ 0.258 mM) | >2000 µg/mL | >2000 µg/mL | more Gram-positive selective activity | – |
| CCCCCCCCCCCCCCCC(=O)N[C@@H](CCCCN)C(=O)N[C@@H](Cc1ccc(O)cc1)C(N)=O [HB2247, Pal-KY-NH2] | >2000 µg/mL | >2000 µg/mL | >2000 µg/mL | >2000 µg/mL | – | – |
| CCCCCCCCCCCCCCCC(=O)N[C@@H](CCCCN)C(=O)N[C@@H](Cc1c[nH]c2ccccc12)C(N)=O [HB2248, Pal-KW-NH2] (Palmitoyl-Lys-Trp-NH2) | >2000 µg/mL | >2000 µg/mL | >2000 µg/mL | >2000 µg/mL | – | – |
| CCCCCCCCCCCCCCCC(=O)N1CCC[C@H]1C(=O)N[C@@H](CCCCN)C(N)=O [HB2251, Pal-PK-NH2] (Palmitoyl-Pro-Lys-NH2) | 4 to 16 µg/mL | 128 µg/mL (≈ 0.266 mM) | 2000 µg/mL (≈ 4.16 mM) | 128 µg/mL (≈ 0.266 mM) | – | – |
| CCCCCCCCCCCCCCCC(=O)N[C@@H](CCCCN)C(=O)N[C@@H](CCCNC(=N)N)C(=O)O [HB2253, Pal-KR-OH] (Palmitoyl-Lys-Arg-OH) | 2 to 4 µg/mL | 16 µg/mL (≈ 0.0296 mM) | 500 µg/mL (≈ 0.925 mM) | 32 µg/mL (≈ 0.0592 mM) | broad spectrum antimicrobial activity | – |
| CCCCCCCCCCCCCCCC(=O)N1CCC[C@H]1C(=O)N[C@@H](CCCCN)C(=O)O [HB2255, Pal-PK-OH] (Palmitoyl-Pro-Lys-OH) | >2000 µg/mL | >2000 µg/mL | >2000 µg/mL | >2000 µg/mL | inactive | – |
| CCCCCCCCCCCCCCCC(=O)N[C@@H](CCCCN)C(=O)N1CCC[C@@H]1C(=O)O [HB2256, Pal-K-dP-OH] (Palmitoyl-Lys-[dP]-OH) | >2000 µg/mL | >2000 µg/mL | >2000 µg/mL | >2000 µg/mL | – | – |
| CCCCCCCCCCCCCCCC(=O)N[C@@H](CCCCN)C(=O)N1CCC[C@H]1C(=O)O [HB2257, Pal-KP-OH] (Palmitoyl-Lys-Pro-OH) | >2000 µg/mL | >2000 µg/mL | >2000 µg/mL | >2000 µg/mL | inactive | – |
| CCCCCCCCCCCCCCCC(=O)N[C@@H](CCCCN)C(=O)N[C@@H](CCCCN)C(=O)O [HB2258, Pal-KK-OH] | 1 to 4 µg/mL | 16 µg/mL (≈ 0.0312 mM) | 32 µg/mL (≈ 0.0624 mM) | 64 µg/mL (≈ 0.125 mM) | – | – |
